System: B35 rat neuroblastoma cells
Assay: Cellular O-GlcNAcylation assay (tau O-GlcNAc S400, ICC)
Assay type: cell-based
Details: Neuroblastoma cell, 16 h, tau O-GlcNAcylated at serine 400
Protocol: The following day cells were treated with appropriate concentration of a solution of inhibitor for 16 h at 37° C. in 5% CO2. Cells were fixed in 100 μl 4% paraformaldehyde for 15 min at room temperature, followed by three washes in PBS buffer. The cells were then permeabilized with 0.1% Triton X-100 for 60 min at room temperature. After three washes in PBS the cells were blocked with 10% goat serum containing 1% BSA in PBS buffer for two hours at room temperature. The cells were then incubated with a monoclonal rabbit antibody specific for tau O-GlcNAcylated at serine 400 (Epitomics) at a 1:1000 dilution overnight at 4° C. […] To calculate an EC50 the total peak intensity was plotted against the concentration of inhibitor to produce a sigmoidal dose response curve.

Structure (SMILES)	EC50 [nM]
CC(=O)Nc1ncc(CN2CCC(c3ccccc3)CC2)s1 [Compound 1, N-(5-((4-phenylpiperidin-1-yl)methyl)thiazol-2-yl)acetamide]	200 to 1000
COC(=O)Nc1ncc(CN2CCC(c3ccccc3)CC2)s1 [Compound 2, [5-(4-Phenyl-piperidin-1-ylmethyl)-thiazol-2-yl]-carbamic acid methyl ester]	> 10000
CC(=O)Nc1ncc(CN2CCC(c3ccc(C)cc3)CC2)s1 [Compound 14, N-(5-((4-(p-tolyl)piperidin-1-yl)methyl)thiazol-2-yl)acetamide]	200 to 1000

Biological target: T1, His-Tagged hOGA (Homo sapiens, UniProt O60502)
T1 sequence (O60502 1-916): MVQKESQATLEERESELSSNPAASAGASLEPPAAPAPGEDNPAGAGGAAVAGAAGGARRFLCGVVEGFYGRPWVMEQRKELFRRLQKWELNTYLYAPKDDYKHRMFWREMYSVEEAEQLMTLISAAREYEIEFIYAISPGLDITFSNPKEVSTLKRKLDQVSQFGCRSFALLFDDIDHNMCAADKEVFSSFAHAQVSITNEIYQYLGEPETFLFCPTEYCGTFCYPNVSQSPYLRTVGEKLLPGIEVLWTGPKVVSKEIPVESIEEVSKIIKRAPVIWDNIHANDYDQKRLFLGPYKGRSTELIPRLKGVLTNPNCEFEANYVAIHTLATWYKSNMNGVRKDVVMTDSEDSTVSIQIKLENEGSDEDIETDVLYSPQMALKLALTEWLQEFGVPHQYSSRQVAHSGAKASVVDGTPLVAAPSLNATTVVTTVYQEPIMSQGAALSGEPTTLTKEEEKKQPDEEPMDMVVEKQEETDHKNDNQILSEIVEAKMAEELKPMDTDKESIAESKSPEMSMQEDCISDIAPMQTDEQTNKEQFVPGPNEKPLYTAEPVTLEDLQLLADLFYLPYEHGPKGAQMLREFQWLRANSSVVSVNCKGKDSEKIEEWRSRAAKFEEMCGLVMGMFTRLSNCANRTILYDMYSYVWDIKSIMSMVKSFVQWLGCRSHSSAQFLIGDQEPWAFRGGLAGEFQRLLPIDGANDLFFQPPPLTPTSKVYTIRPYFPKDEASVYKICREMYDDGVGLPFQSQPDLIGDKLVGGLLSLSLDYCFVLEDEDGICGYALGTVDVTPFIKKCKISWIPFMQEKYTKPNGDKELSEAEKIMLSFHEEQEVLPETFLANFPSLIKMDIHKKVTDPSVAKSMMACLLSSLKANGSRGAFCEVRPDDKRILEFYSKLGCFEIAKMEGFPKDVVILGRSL
Assay: Human O-GlcNAcase enzyme inhibition assay
Assay type: biochemical
Details: not given
Protocol: The following reaction components were added to a final volume of 10 μL in Mcllvaine's Buffer (pH 6.5): 20 nM His-Tagged hOGA and 10 μM Fluorescein mono-beta-D-(2-deoxy-2-N-acetyl) glucopyranoside (FL-GlcNAc; Marker Gene Technologies Inc, Part # M1485). […] The amount of fluorescence measured was plotted against the concentration of inhibitor to produce a sigmoidal dose response curve, from which an IC50 was calculated.

Structure (SMILES)	IC50 [nM]
CC(=O)Nc1ncc(CN2CCC(C#N)(c3ccccc3)CC2)s1 [Compound 23, N-[5-(4-cyano-4-phenyl-piperidin-1-ylmethyl)-thiazol-2-yl]-acetamide]	> 10000
CC(=O)Nc1ncc(CN2CCC(Cc3ccccc3)CC2C)s1 (centres unmarked) [Compound 51, N-(5-((4-BENZYL-2-METHYLPIPERIDIN-1-YL)METHYL)THIAZOL-2-YL)ACETAMIDE]	< 200
CC(=O)Nc1ncc(CN2CCC(Cc3ccc(C)cc3)CC2)s1 [Compound 54, N-(5-((4-(4-METHYLBENZYL)PIPERIDIN-1-YL)METHYL)THIAZOL-2-YL)ACETAMIDE]	< 200
COc1ccc(CC2CCN(Cc3cnc(NC(C)=O)s3)CC2)cc1 [Compound 55, N-(5-((4-(4-METHOXYBENZYL)PIPERIDIN-1-YL)METHYL)THIAZOL-2-YL)ACETAMIDE]	< 200

Same assay, conditions: 20 nM His-Tagged hOGA, 10 μM FL-GlcNAc, pH 6.5, 60 min; read-out: hOGA enzyme inhibition (IC50)

Structure (SMILES)	IC50 [nM]
CC(=O)Nc1ncc(CN2CCC(Cc3ccccc3)C(F)C2)s1 (single isomer, unassigned) [Compound 52, N-(5-((-4-BENZYL-3-FLUOROPIPERIDIN-1-YL)METHYL)THIAZOL-2-YL)ACETAMIDE]	< 200
CC(=O)Nc1ncc(CN2CCC(c3ccccc3)CC2)s1 [Compound 1, N-(5-((4-phenylpiperidin-1-yl)methyl)thiazol-2-yl)acetamide]	< 200
COC(=O)Nc1ncc(CN2CCC(c3ccccc3)CC2)s1 [Compound 2, [5-(4-Phenyl-piperidin-1-ylmethyl)-thiazol-2-yl]-carbamic acid methyl ester]	1000 to 10000
CCC(=O)Nc1ncc(CN2CCC(c3ccccc3)CC2)s1 [Compound 3, N-(5-((4-phenylpiperidin-1-yl)methyl)thiazol-2-yl)propionamide]	200 to 1000
C=CC(=O)Nc1ncc(CN2CCC(c3ccccc3)CC2)s1 [Compound 4, N-[5-(4-phenyl-piperidin-1-ylmethyl)-thiazol-2-yl]-acrylamide]	1000 to 10000
CCNc1ncc(CN2CCC(c3ccccc3)CC2)s1 [Compound 5, N-ethyl-5-((4-phenylpiperidin-1-yl)methyl)thiazol-2-amine]	> 10000
CCCNc1ncc(CN2CCC(c3ccccc3)CC2)s1 [Compound 6, 5-((4-phenylpiperidin-1-yl)methyl)-N-propylthiazol-2-amine]	> 10000
Cc1ncc(CN2CCC(c3ccccc3)CC2)s1 [Compound 7, 2-methyl-5-((4-phenylpiperidin-1-yl)methyl)thiazole]	> 10000
CCc1ncc(CN2CCC(c3ccccc3)CC2)s1 [Compound 8, 2-ethyl-5-((4-phenylpiperidin-1-yl)methyl)thiazole]	> 10000
CC(=O)N(C)c1ncc(CN2CCC(c3ccccc3)CC2)s1 [Compound 9, N-methyl-N-(5-((4-phenylpiperidin-1-yl)methyl)thiazol-2-yl)acetamide]	1000 to 10000
CNC(=O)Nc1ncc(CN2CCC(c3ccccc3)CC2)s1 [Compound 10, 1-methyl-3-(5-((4-phenylpiperidin-1-yl)methyl)thiazol-2-yl)urea]	1000 to 10000
CS(=O)(=O)Nc1ncc(CN2CCC(c3ccccc3)CC2)s1 [Compound 11, N-[5-(4-phenyl-piperidin-1-ylmethyl)-thiazol-2-yl]-methanesulfonamide]	> 10000
c1ccc(C2CCN(Cc3cnc(NC4CC4)s3)CC2)cc1 [Compound 12, N-cyclopropyl-5-((4-phenylpiperidin-1-yl)methyl)thiazol-2-amine]	> 10000
CC(=O)Nc1ncc(CN2CCC(c3ccccc3)CC2)o1 [Compound 13]	1000 to 10000
CC(=O)Nc1ncc(CN2CCC(c3ccc(C)cc3)CC2)s1 [Compound 14, N-(5-((4-(p-tolyl)piperidin-1-yl)methyl)thiazol-2-yl)acetamide]	< 200
CC(=O)Nc1ncc(CN2CCC(C)CC2)s1 [Compound 15, N-[5-(4-methyl-piperidin-1-ylmethyl)-thiazol-2-yl]-acetamide]	1000 to 10000
CC(=O)Cc1ncc(CN2CCC(c3ccccc3)CC2)s1 [Compound 17]	> 10000

Structure (SMILES)	IC50 [nM]
CCC(=O)Cc1ncc(CN2CCC(c3ccccc3)CC2)s1 [Compound 18]	> 10000
CC(=O)Nc1ncc(CN2CCC(O)(c3ccccc3)CC2)s1 [Compound 24, N-[5-(4-hydroxy-4-phenyl-piperidin-1-ylmethyl)-thiazol-2-yl]-acetamide]	1000 to 10000
CC(=O)Nc1ncc(CN2CCC(N(C)C)CC2)s1 [Compound 34, N-(5-((4-(dimethylamino)piperidin-1-yl)methyl)thiazol-2-yl)acetamide]	> 10000
CC(=O)Nc1ncc(CN2CCC(c3ccccc3C(=O)O)CC2)s1 [Compound 44, 2-(1-((2-acetamidothiazol-5-yl)methyl)piperidin-4-yl)benzoic acid]	> 10000
CC(=O)Nc1ncc(CN2CCC(Cc3ccc(Cl)cc3)CC2)s1 [Compound 46, N-(5-((4-(4-chlorobenzyl)piperidin-1-yl)methyl)thiazol-2-yl)acetamide]	< 200
CC(=O)Nc1ncc(CN2CCC(Cc3ccc4c(c3)OCO4)CC2)s1 [Compound 47]	< 200
CC(=O)Nc1ncc(CN2CCC(Cc3ccc(F)cc3)CC2)s1 [Compound 48, N-(5-((4-(4-FLUOROBENZYL)PIPERIDIN-1-YL)METHYL)THIAZOL-2-YL)ACETAMIDE]	< 200
CC(=O)Nc1ncc(CN2CCC(Cc3ccc(C(F)(F)F)cc3)CC2)s1 [Compound 49, N-(5-((4-(4-(TRIFLUOROMETHYL)BENZYL)PIPERIDIN-1-YL)METHYL)THIAZOL-2-YL)ACETAMIDE]	< 200
CC(=O)Nc1ncc(CN2CCC(Cc3cccc(F)c3)CC2)s1 [Compound 50, N-(5-((4-(3-FLUOROBENZYL)PIPERIDIN-1-YL)METHYL)THIAZOL-2-YL)ACETAMIDE]	< 200
CC(=O)Nc1ncc(CN2CCC(Cc3ccccc3)C(C)C2)s1 (centres unmarked) [Compound 53, N-(5-((4-BENZYL-3-METHYLPIPERIDIN-1-YL)METHYL)THIAZOL-2-YL)ACETAMIDE]	< 200
CC(=O)Nc1ncc(CN2CCC(Cc3ccc4ccccc4c3)CC2)s1 [Compound 56]	< 200
CC(=O)Nc1ncc(CN2CCN(C(C)c3ccc4c(c3)OCO4)CC2)s1 (centres unmarked) [Compound 58, N-(5-((4-(1-(BENZO[D][1,3]DIOXOL-5-YL)ETHYL)PIPERAZIN-1-YL)METHYL)THIAZOL-2-YL)ACETAMIDE]	1000 to 10000
CC(c1ccc2c(c1)OCO2)N1CCN(Cc2cnc(N3CCNC(=O)C3)s2)CC1 (centres unmarked) [Compound 59, 4-(5-((4-(1-(BENZO[D][1,3]DIOXOL-5-YL)ETHYL)PIPERAZIN-1-YL)METHYL)THIAZOL-2-YL)PIPERAZIN-2-ONE]	1000 to 10000
CC(=O)Nc1ncc(CN2CCC(Oc3ccccc3)CC2)s1 [Compound 61, N-(5-((4-PHENOXYPIPERIDIN-1-YL)METHYL)THIAZOL-2-YL)ACETAMIDE]	200 to 1000
CC(=O)Nc1ncc(CN2CCC(CCc3ccccc3)CC2)s1 [Compound 62]	< 200
CC(=O)Nc1ncc(CN2CCC(Cc3ccc4nccnc4c3)CC2)s1 [Compound 63]	< 200
CC(=O)Nc1ncc(CN2CCC(Cc3cc(F)cc(F)c3)CC2)s1 [Compound 64, N-(5-((4-(3,5-DIFLUOROBENZYL)PIPERIDIN-1-YL)METHYL)THIAZOL-2-YL)ACETAMIDE]	< 200

From patent publication US10301299B2, “Glycosidase inhibitors” (Merck Patent GmbH, priority 2013, dated 2019)
